Reference: patent US20230272062A1, “Treatment Of Lung Disease Based Upon Stratification Of Polygenic Score Relating To Response To A Therapeutic Agent” (Regeneron Pharmaceuticals, Inc., priority 2021, published 2023)
Entries after “also recorded” stand apart in the source; their conditions may differ.

Key:
[1] = Change of FEV1 in dupilumab-treated subjects stratified by FEV1-PS; type: in vivo, human; conditions: European subjects
Text: The covariates were AGE, SEX, STUDYID (study identifier), ICS_FL (taking inhaled corticosteroids at baseline; yes/no), EOSBL_300 FL (eosinophils >300 at baseline), ASMANUM_LOG (exacerbation history for the previous year), HGTBL (height baseline), FEV1BL, and PC1-4 (principal components 1-4). The FEV1-PS was divided into quartiles and ranked from lowest to highest, the number at the bottom of each bar is the number of subjects in each group, and the number inside each bar is the change in FEV1 values at week 12.
The covariates were AGE, SEX, STUDYID, ICS_FL, EOSBL_300 FL, ASMANUM_LOG, HGTBL, FEV1BL, and PC1-4.

[2] = Annualized exacerbation rate in dupilumab-treated subjects stratified by FEV1-PS; type: in vivo, human; conditions: European subjects, by FEV1-PS quartile (FIG. 3)
Text: The covariates were AGE, SEX, STUDYID, ICS_FL, EOSBL_300 FL, ASMANUM_LOG, HGTBL, FEV1BL, and PC1-4. The FEV1-PS was divided into quartiles and ranked from lowest to highest, the number at the bottom of each bar is the number of subjects in each group, and the number inside each bar is the change in annualized exacerbation rate.

Substance: dupilumab
- longitudinal increase of change of FEV1 ([1]; by FEV1-PS (FIG. 2)): significantly associated with better FEV1 improvement; also recorded: greatest FEV1 improvement
- change of FEV1 at week 12 ([1]; by FEV1-PS quartile, compared to placebo-treated patients (FIG. 1)): significantly associated with better FEV1 improvement; also recorded: greatest improvement in FEV1
- annualized exacerbation rates [2]: not associated with differences in annualized exacerbation rates
